Data: patent US12378186B2, “Inhibitors of meprin α and β” (VIVORYON THERAPEUTICS N.V., priority 2016, dated 2025)
Read-outs that look alike come from different tables or passages of the source.

Tests used:
hMeprin α = molecular target: T1, hMeprin α (Homo sapiens, UniProt Q16819); assay: biochemical; assay type: biochemical; details: 30° C., 40 mM HEPES pH 7.4; for IC50: average IC50, 10 μM substrate, read-out: Meprin Alpha IC50; for Ki: average Ki, 4 substrate concentrations (5-40 μM), read-out: Meprin Alpha Ki
T1 sequence (Q16819 66-746): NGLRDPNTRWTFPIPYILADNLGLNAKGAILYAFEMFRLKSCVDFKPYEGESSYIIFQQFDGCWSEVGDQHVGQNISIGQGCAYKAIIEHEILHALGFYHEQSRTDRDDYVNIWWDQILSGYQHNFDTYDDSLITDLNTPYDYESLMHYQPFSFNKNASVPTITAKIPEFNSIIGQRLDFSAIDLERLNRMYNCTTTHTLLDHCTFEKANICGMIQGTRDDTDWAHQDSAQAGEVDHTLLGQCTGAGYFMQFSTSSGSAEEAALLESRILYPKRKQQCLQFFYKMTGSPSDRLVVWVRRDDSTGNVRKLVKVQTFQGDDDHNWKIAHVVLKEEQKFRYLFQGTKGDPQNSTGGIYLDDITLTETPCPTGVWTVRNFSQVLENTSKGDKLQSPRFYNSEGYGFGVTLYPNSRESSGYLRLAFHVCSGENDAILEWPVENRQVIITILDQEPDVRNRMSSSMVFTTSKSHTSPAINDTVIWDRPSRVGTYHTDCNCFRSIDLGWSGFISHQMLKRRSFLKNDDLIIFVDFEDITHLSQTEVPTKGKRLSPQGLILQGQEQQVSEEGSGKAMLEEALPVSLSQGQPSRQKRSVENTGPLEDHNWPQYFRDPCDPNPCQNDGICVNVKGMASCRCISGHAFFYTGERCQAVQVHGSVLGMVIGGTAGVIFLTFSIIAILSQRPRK
Method: (§1) A typical assay of 250 μl total volume measured in black 96 well plates consisted of 100 μl buffer, 50 μl enzyme at a final concentration of 5e-8 M to 5e-9 M, 50 μl substrate (0.15 to 80 μM, in buffer, 0.5% DMSO) and 50 μl inhibitor solution (in buffer, 1% DMSO). In case of 125 μl assay volume (black 96 half area well plates) all volumes were cut in half. Enzymatic activity of ADAMs was measured in 384 well plates with 60 μl total assay volume consisting of 20 μl inhibitor, 20 μl buffer, 10 μl enzyme and 10 μl substrate.
(§2) Ki values were assessed combining 4 substrate concentrations (5-40 μM) with at least 5 inhibitor concentrations. […] Initial velocities were determined and converted into concentration units applying a standard curve obtained after complete conversion of different substrate concentrations under assay conditions. All measurements were performed using a fluorescence plate reader (FLUOstar OPTIMA, BMG Labtech) at 30° C. The kinetic parameters were determined at least in duplicates on separate days. The excitation/emission wavelength was 340/420 nm. The kinetic data was evaluated using GraFit software (version 7.0.3, Erithacus Software).
(§3) The following compounds according to the present invention were synthesized using the above general procedures. IC50 refers to the average IC50 values measured as described above, SD (IC50) refers to the standard deviation of the average IC50 values, Ki refers to the average K; values measured as described above, and SD (Ki) to the standard deviation of the average Ki values.

hMeprin β = molecular target: T2, hMeprin β (Homo sapiens, UniProt Q16820); assay: Enzymatic assay, cleavage of internally quenched peptide substrate, hMeprin β; assay type: biochemical
T2 sequence (Q16820 62-701): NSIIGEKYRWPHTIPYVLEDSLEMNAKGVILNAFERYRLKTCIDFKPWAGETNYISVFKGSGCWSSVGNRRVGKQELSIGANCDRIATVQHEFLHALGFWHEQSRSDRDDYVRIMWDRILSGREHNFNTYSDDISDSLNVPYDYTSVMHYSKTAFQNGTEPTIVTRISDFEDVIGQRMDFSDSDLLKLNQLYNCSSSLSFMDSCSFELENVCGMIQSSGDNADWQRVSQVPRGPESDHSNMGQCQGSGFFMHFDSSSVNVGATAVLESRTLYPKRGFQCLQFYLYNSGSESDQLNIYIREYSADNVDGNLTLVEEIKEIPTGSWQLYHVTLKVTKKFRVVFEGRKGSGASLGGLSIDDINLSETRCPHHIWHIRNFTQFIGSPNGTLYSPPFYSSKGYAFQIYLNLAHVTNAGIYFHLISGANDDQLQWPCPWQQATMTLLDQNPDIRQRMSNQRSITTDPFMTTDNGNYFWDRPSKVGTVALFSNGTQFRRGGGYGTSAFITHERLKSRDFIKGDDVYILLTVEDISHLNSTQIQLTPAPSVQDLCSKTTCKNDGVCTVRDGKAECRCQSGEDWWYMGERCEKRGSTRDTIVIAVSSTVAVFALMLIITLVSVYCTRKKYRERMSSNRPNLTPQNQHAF
Method: as §1, §2, §3

[1] = average IC50, 10 μM substrate, 30° C., 40 mM Tris pH 8.0, read-out: Meprin Beta IC50

| SMILES | IC50 (hMeprin α) [µM] | Ki (hMeprin β) [nM] | IC50 (hMeprin β; [1]) [nM] | Ki (hMeprin α) [nM] | IC50 (hMeprin β) [nM] |
| --- | --- | --- | --- | --- | --- |
| O=C(CN(Cc1ccc(C(=O)O)cc1)Cc1cccc(C(=O)O)c1)NO [Example 7, 3-[[(4-Carboxyphenyl)methyl-[2-(hydroxyamino)-2-oxo-ethyl]amino]methyl]benzoic acid] | 44.4 | 101 | 206 | – | – |
| O=C(O)c1cccc(CN[C@H](C(=O)NO)c2ccccc2)c1 [Example 37, 3-[[[(1S)-2-(Hydroxyamino)-2-oxo-1-phenyl-ethyl]amino]methyl]benzoic acid] | 26.3 | – | 12200 | – | – |
| COc1ccc(CN(CC(=O)NO)Cc2cccc(C(=O)O)c2)cc1F [Example 10, 3-[[(3-Fluoro-4-methoxy-phenyl)methyl-[2-(hydroxyamino)-2-oxo-ethyl]amino]methyl]benzoic acid] | 3.74 | 157 | – | 1090 | 352 |
| COc1ccc(CN(CC(=O)NO)Cc2ccc(Cl)cc2)cc1 [Example 26, 2-[(4-Chlorophenyl)methyl-[(4-methoxyphenyl)-methyl]amino]ethanehydroxamic acid] | 1.99 | – | – | – | 53400 |
| COc1ccc(CN(CC(=O)NO)Cc2cccc(C(=O)O)c2)cc1 [Example 6, 3-[[[2-(Hydroxyamino)-2-oxo-ethyl]-[(4-methoxyphenyl)methyl]amino]-methyl]benzoic acid] | – | 39 | – | 1210 | – |
| O=C(CN(Cc1ccc(F)c(O)c1F)Cc1ccc(F)c(O)c1F)NO [Example 47, 2-[bis[(2,4-difluoro-3-hydroxy-phenyl)-methyl]amino]ethanehydroxamic acid] | 0.626 | 12 | 23 | 189 | – |
| COc1ccc(CN(CC(=O)NO)Cc2cccc(OC)c2)cc1 [Example 27, 2-[(3-Methoxyphenyl)methyl-[(4-methoxyphenyl)-methyl]amino]ethanehydroxamic acid] | 3.2 | – | – | – | 34500 |
| C[C@H](NCc1cccc(C(=O)O)c1)C(=O)NO [Example 28, 3-[[[(1S)-2-(Hydroxyamino)-1-methyl-2-oxo-ethyl]amino]methyl]benzoic acid] | 16.7 | 3100 | 4200 | – | – |
| CCOC(=O)c1cccc(CN(CC(=O)NO)Cc2cccc(C(=O)OCC)c2)c1 [Example 54, ethyl 3-[[(3-ethoxycarbonylphenyl)methyl-[2-(hydroxyamino)-2-oxo-ethyl]amino]methyl]benzoate] | 7.27 | 1760 | 94800 | – | – |
| COC(=O)c1cccc(CN(CC(=O)NO)Cc2cccc(C(=O)O)c2)c1 [Example 43] | 6.28 | 152 | – | 1740 | 516 |
| O=C(O)C[C@H](NCc1cccc(C(=O)O)c1)C(=O)NO [Example 45, 3-[[[(1S)-1-(carboxymethyl)-2-(hydroxyamino)-2-oxo-ethyl]amino]methyl]benzoic acid] | 60.4 | 644 | 1320 | – | – |
| O=C(CCN(Cc1ccccc1)Cc1ccccc1)NO [Example 71, 3-(dibenzylamino) propanehydroxamic acid] | 1.68 | – | – | 612 | 75500 |
| O=C(CN(Cc1cccc(O)c1F)Cc1cccc(O)c1F)NO [Example 51, 2-[bis[(2-fluoro-3-hydroxy-phenyl)methyl]-amino]ethanehydroxamic acid] | 1.21 | 1170 | 2900 | 335 | – |
| O=C(O)c1cccc(CN[C@H](Cc2ccccc2)C(=O)NO)c1 [Example 35, 3-[[[(1R)-1-Benzyl-2-(hydroxyamino)-2-oxo-ethyl]amino]methyl]benzoic acid] | 2.65 | 1360 | 2910 | – | – |
| COc1cc(F)c(CN(CC(=O)NO)Cc2cccc(C(=O)O)c2)c(F)c1 [Example 11, 3-[[(2,6-Difluoro-4-methoxy-phenyl)methyl-[2-(hydroxyamino)-2-oxo-ethyl]amino]methyl]benzoic acid] | 2.12 | 154 | – | 1260 | 355 |
| O=C(CN(Cc1cccc(C(=O)O)c1)Cc1cccc(C(=O)O)c1)NO [Example 2, 3-[[(3-Carboxyphenyl)methyl-[2-(hydroxyamino)-2-oxo-ethyl]amino]methyl]benzoic acid] | 30.9 | 18 | – | 10400 | – |
| O=C(O)CC[C@H](NCc1cccc(C(=O)O)c1)C(=O)NO [Example 39, 3-[[[(1S)-3-carboxy-1-(hydroxylcarbamoyl)-propyl]amino]methyl]benzoic acid] | 8.66 | 325 | 654 | 2530 | – |
| COc1ccc(CN(CC(=O)NO)Cc2ccc(C)cc2)cc1 [Example 24, 2-[(4-Methoxyphenyl)methyl-(p-tolylmethyl)-amino]ethanehydroxamic acid] | 2.33 | – | – | – | 60900 |
| O=C(CN(Cc1ccc(Cl)cc1F)Cc1ccc(Cl)cc1F)NO [Example 60, 2-[bis[(4-chloro-2-fluoro-phenyl)methyl]-amino]ethanehydroxamic acid] | 3.06 | – | – | 838 | 138000 |
